Results published in US8461146B2, “Pharmaceutical composition for the treatment of premature ejaculation” (priority 2008, dated 2013).
Entries after “also recorded” stand apart in the source; their conditions may differ.

Tests used:
[1] = system: sexually active male Crl:CD (SD) rats; assay: Pharmacological effect evaluation (rats): copulatory behavior test, ejaculation latency time; assay type: in vivo; settings: single drugs and double-drug combinations, C 2.70, S 6.02, F 2.41 mg/kg; for Ejaculation latency time, mean ± S.E.M.: single oral, test 3 h after dosing; for Increasing rate of ELT: vs negative control
Experimental: According to the method of Brain Res Brain Res Protoc, 1997, (1):203-9, this experiment was executed by employing male and female Crl:CD (SD) rats above 20 weeks old as test animals.
The female rats were anesthetized by the intraperitoneal injection of combination of ketamine 75 mg/kg and xylazine 25 mg/kg. After performing laparotomy, the ovaries were removed and peritoneal wall was closed with sutures. 2 ml of 10% ampicillin was injected intraperitoneally and the female rats had recovery period of 7 days. Ovariectomied females were brought into artificial estrus by subcutaneous injection of 20 μg/rat of estradiol benzoate, dissolved in 0.2 ml of sesame oil, about 52 hours before the administration of a test compound, followed by s.c injection of 1 mg/rat of progestrerone, dissolved in 0.2 ml of sesame oil, about 4 hours before the administration of a test compound.
Screening test was performed in an observation cage (60×40×30 cm) with plexiglass front. Before screening test, the male rats were allowed to adapt to the observation cage for 10 minutes and then the female rats with artificial estrus were brought into the cage. If male rats had ejaculated within 30 minutes, they were regarded as sexually active ones. Selected male rats went through copulatory experience for 5 times at 3 days intervals.
The experienced males were divided into 15 groups of about 10 animals so that the mean ejaculation latency time (ELT) of groups are similar. Test compound was single orally administered.
Group 1 as a negative control was administered with 0.5% methylcellulose 1500 (Sigma Co., hereinafter as “MC 1500”). […] Groups 5˜7 were administered with double-drug combinations. Groups 8˜15 were administered with triple-drug combinations having various doses. Detailed doses are represented in Table 2 below.
After 2 hours and 50 minutes from the administration of test compounds, the male rats were allowed to adapt to the observation cage for 10 minutes. Then copulatory behavior test was initiated with the introduction of female rats with artificial estrus into the observation cage. The ejaculation latency time (ELT) as the time from the first intromission until the ejaculation was evaluated.

[2] = system: Patients with premature ejaculation of 60 seconds or less; assay: Clinical study: treatment effect in patients with premature ejaculation; assay type: in vivo, human; settings: sertraline 50.0 mg, fluoxetine 20.0 mg, triple C 7.5 + S 11.3 + F 5.9 mg, 3 weeks; for Patient no. with ELT of 10 min or over: of 20 patients per group, daily dose clomipramine 22.4 mg, 3 hours before intercourse; for Treatment effect: share of 20 patients with ELT 10 min or more, clomipramine 22.4 mg
Experimental: (§1) Patients with premature ejaculation of 60 seconds or less were divided into 4 groups of twenty people. […] A dose was taken 3 hours before the sexual intercourse begins, and the administration period was for 3 weeks. The effect of the administration of the drugs to the patients examined through interviews with the patients. A drug was determined as effective when the patient's ejaculation latency time had been 10 minutes or more.

[3] = Side effect evaluation, clinical study (sedation); assay type: in vivo, human; settings: clomipramine 22.4 mg, triple C 7.5 + S 11.3 + F 5.9 mg
Experimental: as §1, with “patients.” for “patients. A drug was determined as effective when the patient's ejaculation latency time had been 10 minutes or more.”
A side effect incidence rate of sedation was investigated among patients who took each drug in Example 4.

[4] = system: premature ejaculation patients; settings: clomipramine 25 mg or 50 mg per day; sertraline 50 mg to 200 mg per day; fluoxetine 40 mg; cited from earlier work
[5] = clomipramine 50 mg; sertraline 50 mg to 200 mg per day; fluoxetine 40 mg and another report; cited from earlier work
[6] = Side effect evaluation, clinical study (nausea); assay type: in vivo, human; settings: sertraline 50.0 mg, triple C 7.5 + S 11.3 + F 5.9 mg
Experimental: as §1, with “patients.” for “patients. A drug was determined as effective when the patient's ejaculation latency time had been 10 minutes or more.”
A side effect incidence rate of nausea was investigated among patients who took each drug in Example 4.

[7] = rat, in vivo, po
Experimental: Rats were supplemented with about 200 μl of heparinized saline (20 IU/ml) at each sampling times.
The maximum plasma concentration (Cmax) and the time to reach Cmax (Tmax) were obtained from the plasma concentration-time curve. The area under the plasma concentration-time curve (AUC) was calculated by using the trapezoidal rule.

With `CN(C)CCCN1c2ccccc2CCc2ccc(Cl)cc21` [Clomipramine, clomipramine] the “Ejaculation latency time, mean ± S.E.M.” value [1] was 177.2 ± 47.6 s, the “Increasing rate of ELT” value [1] was −14.3% and the “Patient no. with ELT of 10 min or over” value [2] was 15. The Treatment effect [2] was 75%, the “Incidence rate of sedation” value ([3]; 20 patients) was 70% and the No. of sedation ([3]; of 20 patients) was 14. For the same compound, the “Ejaculation delay effect (literature)” value [4] was “ejaculation latency effect; also recorded: ejaculation was delayed” and the “Side effects (literature)” value [5] was “constipation, dry-mouth, nausea, drowsiness, headache and dizziness”.

In the case of `CN[C@H]1CC[C@@H](c2ccc(Cl)c(Cl)c2)c2ccccc21` [Sertraline, sertraline], the “Patient no. with ELT of 10 min or over” value [2] is reported as 8, the Treatment effect [2] is reported as 40% and the Treatment effect ([2]; listed as sertraline) is reported as “about 40%”. The “Incidence rate of nausea” value ([6]; 20 patients) was 90%, the No. of nausea ([6]; of 20 patients) was 18 and the “Cmax and AUC after triple-drug combination compared with single drug administration (in words)” value [7] was “only AUC increased significantly”. The “Ejaculation delay effect (literature)” value [4] was “the ejaculation was delayed” and the “Side effects (literature)” value [5] was “nausea, vomiting”.

With `CNCCC(Oc1ccc(C(F)(F)F)cc1)c1ccccc1` (centres unmarked) [Fluoxetine, fluoxetine] the “Ejaculation latency time, mean ± S.E.M.” value [1] was 141.3 ± 51.2 s, the “Increasing rate of ELT” value [1] was −31.7% and the “Patient no. with ELT of 10 min or over” value [2] was 0. For the same compound, the Treatment effect [2] was “the curative effect did not show up”, the “Cmax and AUC after triple-drug combination compared with single drug administration (in words)” value [7] was “increases in Cmax and AUC” and the “Ejaculation delay effect (literature)” value [4] was “the ejaculation delay effect was weak”. The “Side effects (literature)” value [5] was “drowsiness, dry-mouth, nausea, vomiting; also recorded: nausea, headache, and insomnia”.
